Results from patent US7807701B2, “Dibenzylamine compounds and pharmaceutical use thereof” (Japan Tobacco Inc., priority 2002, dated 2010).

Test: Concomitant use test with simvastatin in rabbits on high cholesterol food
Type: in vivo, Japanese white rabbits
Conditions: high cholesterol food for 15 days with simvastatin (0.002%) and/or Example 168 (0.2%), control group = 100%; for HDL3 cholesterol content (%): plasma HDL3 fraction; for ApoA-I content (%): plasma
Description: For the experiment, 10-week-old male Japanese white rabbits (manufactured by KITAYAMA LABES Co., Ltd.) were used. The animal was acclimated on normal food (RC-4, manufactured by Oriental Bio-Service Co.) and fasted for 24 hr and a high cholesterol food (0.25% cholesterol-added RC-4, manufactured by Oriental Bio-Service Co.) was given by 100 g/day per rabbit (preliminary feeding) for 3 days. On the next day of day 3 of preliminary feeding, blood was taken from the auricular artery before feeding, and the animals were grouped by 6 rabbits per group based on the parameters (HDL cholesterol content, total cholesterol content, triglyceride content) of plasma and body weight.
Foods were prepared (manufactured by Oriental Bio-Service Co.) by adding simvastatin (0.002%), compound (0.2%) of Example 168, or simvastatin (0.002%)+compound (0.2%) of Example 168 to a high cholesterol food, and each food was given to the grouped animals by 100 g/day per rabbit for 15 days. At 8 hr after feeding on day 15, the total blood was taken from the carotid artery under anesthesia, HDL cholesterol content, total cholesterol content and ApoA-I content in plasma were measured. The arteriosclerosis index was calculated from [(total cholesterol content-HDL cholesterol content)/HDL cholesterol content]. Furthermore, the HDL3 fraction was separated from plasma by ultracentrifugation and the cholesterol content of the fraction was measured. In Table, arteriosclerotic index, ApoA-1 content and HDL3 cholesterol content are shown based on the value of the control group as 100%.

SMILES	Arteriosclerotic index (%)	HDL3 cholesterol content (%)	ApoA-I content (%)
CCN(C[C@H]1CC[C@H](CC(=O)O)CC1)c1cc(C)c(C(F)(F)F)cc1CN(Cc1cc(C(F)(F)F)cc(C(F)(F)F)c1)c1nnn(C)n1 [Example 168, trans-(4-{[N-(2-{[N′-[3,5-bis(trifluoromethyl)benzyl]-N′-(2-methyl-2H-tetrazol-5-yl)amino]methyl}-5-methyl-4-trifluoromethylphenyl)-N-ethylamino]methyl}cyclohexyl)acetic acid methanesulfonate]	82%	141%	114%
CCC(C)(C)C(=O)O[C@H]1C[C@@H](C)C=C2C=C[C@H](C)[C@H](CC[C@@H]3C[C@@H](O)CC(=O)O3)[C@H]21 [simvastatin, reference compound]	53%	128%	114%
